Test results taken from patent US7572783B2 (Amgen Inc., priority 2004, dated 2009).

The molecules below were run against T1, human GHSR1a (Homo sapiens, UniProt Q92847) (assay: Aequorin luminescent functional assay (intracellular Ca2+, ghrelin-stimulated)). Conditions: stable cell line expressing human GHSR1a and apoaequorin; final ghrelin 3x EC50 (20 nM); read-out: Class (based on IC50 values).
T1 construct: expressed in transfected cells
T1 sequence (Q92847 whole entry): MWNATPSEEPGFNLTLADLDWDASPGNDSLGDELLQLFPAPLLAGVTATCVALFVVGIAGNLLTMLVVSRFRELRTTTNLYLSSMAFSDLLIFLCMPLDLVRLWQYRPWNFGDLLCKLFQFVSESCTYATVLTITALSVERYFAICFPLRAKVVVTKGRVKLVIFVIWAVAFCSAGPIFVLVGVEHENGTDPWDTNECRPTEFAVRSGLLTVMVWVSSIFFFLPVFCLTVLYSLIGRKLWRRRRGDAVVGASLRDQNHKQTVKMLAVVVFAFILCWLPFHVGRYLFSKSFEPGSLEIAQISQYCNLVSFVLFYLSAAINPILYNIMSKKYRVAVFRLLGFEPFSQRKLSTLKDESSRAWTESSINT
Experimental: IC50 values of inventive compounds may be assessed as follows. An aequorin (Euroscreen) luminescent assay (Stabels et al., 1997) measuring the intracellular Ca^2+ concentration was used as the functional assay to evaluate the potency of the compounds. A stable cell line, expressing human GHSR1a and apoaequorin in mitochondria was used in the aequorin assay. 5×10^6 cells per mL were incubated at room temperature in HyClone Media (Perbio) supplemented with 2 μM coelenterazine (Molecular Probes). After 2 hrs cells were diluted to 1×10^6 cells per ml in HyClone Medium.
50 μL of the cell suspension was added to each well of a 96-well plate containing 50 μL of compound, diluted in HyClone Medium. The cell suspension/compound mixture was incubated for 30 seconds before 50 μL of a 9× EC50 concentrations of a human ghrelin solution, in HyClone Medium, was injected. The final Ghrelin concentration was 3× EC50 (20 nM). Aequorin luminescence elicited by intracellular Ca^2+ in the cells was recorded for a total of 60 seconds with a microplate luminometer (Microlumate, Berthold). IC50 of the compounds in this assay was calculated with Prism 4.
For `Cc1cccc(C)c1Oc1ccc2c(c1)C(=O)N([C@@H](C(=O)N1CCC(NC(C)c3ccccc3)CC1)C(C)C)CC(=O)N2` (some centres unmarked), the IC50 was ≤ 10 nM. Work on `CC(C)[C@H](C(=O)NC1CCN(Cc2ccccc2)CC1)N1CC(=O)Nc2ccc(Oc3ccc(F)cc3)cc2C1=O` yielded an IC50 of 10 to 50 nM. With `Cc1ccccc1Oc1ccc2c(c1)C(=O)N([C@@H](C(=O)N1CCC(N[C@@H]3CCc4ccccc43)CC1)C(C)C)CCN2` the IC50 was ≤ 10 nM. `CC(C)C(COC(=O)C1CCN(Cc2ccccc2)CC1)N1CC(=O)Nc2ccc(Oc3ccc(F)cc3)cc2C1=O` (centres unmarked) [1-benzyl-piperidine-4-carboxylic acid 2-[7-(4-fluoro-phenoxy)-2,5-dioxo-1,2,3,5-tetrahydro-benzo[e][1,4]diazepin-4-yl]-3-methyl-butyl ester] was tested, and the IC50 was 10 to 50 nM. Work on `CC(C)C(C(=O)OC1CCN(Cc2ccccc2)CC1)N1CC(=O)Nc2ccc(Oc3ccccc3)cc2C1=O` (centres unmarked) [2-(2,5-dioxo-7-phenoxy-1,2,3,5-tetrahydrobenzo[e][1,4]diazepin-4-yl)-3-methyl-butyric acid 1-benzyl-piperidin-4-yl ester] yielded an IC50 of 10 to 50 nM. With `C[C@H](CO)NCc1cccc([C@@H](C2CC2)N2CCc3ccc(Oc4ccc(F)cc4F)cc3C2=O)n1` [2-((R)-cyclopropyl(6-(((R)-1-hydroxypropan-2-ylamino)methyl)pyridin-2-yl)methyl)-7-(2,4-difluorophenoxy)-3,4-dihydroisoquinolin-1(2H)-one] the IC50 was ≤ 10 nM. With `O=C1c2cc(Oc3ccc(F)cc3F)ccc2CCN1C(c1cccc(CCNCC2CC2)c1)C1CC1` (centres unmarked) [2-(cyclopropyl-{3-[2-(cyclopropylmethyl-amino)-ethyl]-phenyl}-methyl)-7-(2,4-difluoro-phenoxy)-3,4-dihydro-2H-isoquinolin-1-one] the IC50 was ≤ 10 nM. In the case of `CC(C)C(COC1CCN(CC2CC2)CC1)N1CCc2ccc(Oc3ccc(F)cc3F)cc2C1=O` (centres unmarked) [2-[1-(1-cyclopropylmethyl-piperidin-4-yloxymethyl)-2-methyl-propyl]-7-(2,4-difluoro-phenoxy)-3,4-dihydro-2H-isoquinolin-1-one], the IC50 is reported as ≤ 10 nM. For `CC(C)C(CC1CCC(NC2CC2)CC1)N1CCCc2ccc(Oc3ccc(F)cc3F)cc2C1=O` (centres unmarked) [2-[1-(4-Cyclopropylamino-cyclohexylmethyl)-2-methyl-propyl]-8-(2,4-difluoro-phenoxy)-2,3,4,5-tetrahydro-benzo[c]azepin-1-one], the IC50 was ≤ 10 nM. `Cc1cccc(C)c1Oc1ccc2c(c1)C(=O)N(C(C(=O)NC1CCN(C3CCc4ccccc43)CC1)C(C)C)CC(=O)N2` (centres unmarked) [2-[7-(2,6-dimethyl-phenoxy)-2,5-dioxo-1,2,3,5-tetrahydro-benzo[e][1,4]diazepin-4-yl]-N-(1-indan-1-yl-piperidin-4-yl)-3-methyl-butyramide] was tested, and the IC50 was ≤ 10 nM. In the case of `CC(C)C(CCC1CCN(CC2CC2)CC1)N1CCc2ccc(Oc3ccc(F)cc3F)cc2C1=O` (centres unmarked) [2-{1-[2-(1-Cyclopropylmethyl-piperidin-4-yl)-ethyl]-2-methyl-propyl}-7-(2,4-difluoro-phenoxy)-3,4-dihydro-2H-isoquinolin-1-one], the IC50 is reported as ≤ 10 nM. With `CC(C)C(C(=O)N1CCC(NC2CC2)CC1)N1CCc2ccc(Oc3ccc(F)cc3F)cc2C1=O` (centres unmarked) [2-{1-[4-(cyclopropyl-amino)-piperidine-1-carbonyl]-2-methyl-propyl}-7-(2,4-difluoro-phenoxy)-3,4-dihydro-2H-isoquinolin-1-one] the IC50 was ≤ 10 nM. In the case of `CC(C)C(C(=O)N1CCC(NCC2CC2)CC1)N1CCc2ccc(Oc3ccc(F)cc3F)cc2C1=O` (centres unmarked) [2-{1-[4-(cyclopropylmethyl-amino)-piperidine-1-carbonyl]-2-methyl-propyl}-7-(2,4-difluoro-phenoxy)-3,4-dihydro-2H-isoquinolin-1-one], the IC50 is reported as ≤ 10 nM. With `Cc1ccccc1Oc1ccc2c(c1)C(=O)N(C(C(=O)N1CCC(NCCc3ccc(F)cc3)CC1)C(C)C)CCN2C` (centres unmarked) [4-(1-{4-[2-(4-fluoro-phenyl)-ethylamino]-piperidine-1-carbonyl}-2-methyl-propyl)-1-methyl-7-o-tolyloxy-1,2,3,4-tetrahydrobenzo[e][1,4]diazepin-5-one] the IC50 was 10 to 50 nM.
